Reference: US20080119412A1, “Polypeptides for Modulating Binding of Trp Channel Proteins and Trp- Associated Proteins” (NoNO Inc., priority 2003, published 2008)
Residues, ends and D or L forms follow the SMILES beside them. *: point of attachment. Biotin = O=C1N[C@H]2[C@H](CS[C@H]2CCCCC(=O)*)N1

Experiments:
Test in all cases: G3 assay titration, GST-PDZ fusion / biotinylated peptide
Format in all cases: binding
Mint1 d2 = target: T1, Mint1 d2 (Homo sapiens, UniProt Q02410)
T1 construct: made in house; host or cells: E. coli (DH5alpha, BL21 or JM109)
T1 sequence (Q02410 with tags, fused parts or gaps): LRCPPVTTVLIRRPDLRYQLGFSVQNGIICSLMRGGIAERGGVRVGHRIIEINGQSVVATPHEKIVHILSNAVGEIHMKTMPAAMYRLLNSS
Experimental: (§1) The G3 assay is identical to the G0 assay with the following exceptions. The peptides are typically present at 0.1 μM rather than 20 μM. The peptides are also pre-incubated with the HRP-streptavidin prior to adding to the assay plate. In the G0 assay, free peptide is incubated with the PDZ proteins prior to the addition of the HRP-streptavidin. Thus, for the G0 assay one can lose signal if the bound peptide dissociates from the PDZ protein prior to the addition of the HRP-streptavidin. In the G3 modified assay the HRP-streptavidin/peptide complex is added to the plate in one step, thus increasing the likelihood that all the bound peptide will be bound to HRP-streptavidin. The G3 modified assay increases the chance of observing weak interactions.
(§2) This example describes assays to identify binding between TRPM7 and PDZ domains. GST-PDZ fusions are produced that each contain an entire PDZ domain (or multiple PDZ domains), the collection encompassing approximately 90% of all PDZ domains identified in the human genome. (See Table 5 and Section V (PDZ Proteins and PL Protein Interactions Disclosure). Biotinylated peptide corresponding to 11 residues of Tat coupled to the C-terminal 9 amino acids of TRPM7 ([…]; SEQ ID NO:258) is synthesized and purified by HPLC.
(§3) • Nunc MaxiSorp 96 well Immuno-plate, Nunc • PBS pH 7.4 (phosphate buffered saline, 8 g NaCl, 0.29 g KCl, 1.44 g Na2HPO4, 0.24 g KH2PO4, add H2O to 1 liter and pH 7.4; 0.2 μm filter) • Assay Buffer: 2% BSA in PBS (20 g of bovine serum albumin per liter PBS, fraction V, ICN Biomedicals, cat#IC15142983 • Goat anti-GST polyclonal Ab, stock 5 mg/ml, stored at 4° C., Amersham Pharmacia cat#27-4577-01 • Dilute 1:1000 in PBS, final concentration 5 μg/ml. • HRP-Streptavidin, 2.5 mg/2 ml stock stored at 4° C., Zymed cat#43-4323, dilute 1:2000 into Assay buffer, final concentration of […] • Wash Buffer, PBS • Biotinylated peptides (HPLC purified, stock solution stored in −20° C. freezer) • GST-PRISM proteins (stock stored at −80° C., after 1st thaw store in −10° C. freezer) • TMB (3,3′,5,5′, teramethylbensidine), tablets, Sigma cat.#T5525 • Per plate, dissolve 1 tablet in 1 ml DMSO, add 9 ml Citrate/Phosphate buffer pH 5.4 and 2 μL H2O2 • 0.1 M H2SO4, Sigma cat.#S1526 • 12-w multichannel pipettor & tips • 50 ml reagent reservoirs, Costar#4870 • 50, 15 ml polypropylene conical tubes • Costar Transtar 96 Costar #7605 • Transtar 96 Cartridge Costar #7610 • Molecular Devices microplate reader (450 & 650 nm filters) with SoftMax Pro software *When using reagents stored at or 4° C. or −20° C., remove & keep on ice
(§4) • 1. Coat plate with 100 μl of 5 μg/ml anti-GST, overnight at 4° C. • 2. Dump contents of plate & out tap dry on paper towels • 3. Block with 200 μl Assay Buffer for 2 hrs at room temperature • 4. Prepare proteins at 5 μg/ml in Assay Buffer • 5. Wash 3× with cold PBS (4° C.), avoiding letting the plates dry out • 6. Add proteins at 50 μl per well, incubate 1 to 2 hrs at 4° C. • 7. Prepare peptides to desired concentration in Assay Buffer • 8. Wash 3× with cold PBS (4° C.), avoiding letting the plates dry out • 9. Add HRP-Streptavidin/peptide complex [prepared by incubating for 20 minutes at room temperature HRP-Streptavidin (1:2000) with the desired biotin-peptide concentration for 20 minutes at room temperature] at 50 μl per well on ice • 10. Place at room temperature for exactly 30 minutes • 11. Promptly wash 5× with PBS at room temperature • 12. Add 100 μl/well TMB substrate (write time on plate) • 13. Incubate in dark at room temperature for a maximum of 30 minutes • 14. Read plate at 25 minutes (650 nm), optional • 15. Stop reaction with 100 μl of 0.18 M H2SO4, 30 minutes after adding TMB • Take last reading at 450 nm soon after stopping reaction
(§5) The G3 assay was performed on a subset of the PDZ domains as in Example II except that the concentration of peptide was 0.002 μM, […], 0.1 μM, 0.2 μM, 1 μM, and 2 μM. Data was fitted to the equation: […]

TIP1 d1 = target: T2, TIP1 d1 (Homo sapiens, UniProt O14907)
T2 construct: made in house; host or cells: E. coli (DH5alpha, BL21 or JM109)
T2 sequence (O14907 14-116): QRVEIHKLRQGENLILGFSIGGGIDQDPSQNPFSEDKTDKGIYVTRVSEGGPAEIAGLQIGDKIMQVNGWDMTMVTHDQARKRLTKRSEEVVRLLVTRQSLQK
Experimental: as §1, §2, §3, §4, §5

MUPP1 d3 = target: T3, MUPP1 d3 (Homo sapiens, UniProt O75970)
T3 construct: made in house; host or cells: E. coli (DH5alpha, BL21 or JM109)
T3 sequence (O75970 with tags, fused parts or gaps): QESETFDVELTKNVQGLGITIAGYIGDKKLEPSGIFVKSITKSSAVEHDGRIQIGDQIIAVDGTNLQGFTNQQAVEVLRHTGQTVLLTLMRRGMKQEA
Experimental: as §1, §2, §3, §4, §5

KIAA1284 d1 = target: T4, KIAA1284 d1 (Homo sapiens, UniProt Q9ULD6)
T4 construct: made in house; host or cells: E. coli (DH5alpha, BL21 or JM109)
T4 sequence (Q9ULD6 159-271): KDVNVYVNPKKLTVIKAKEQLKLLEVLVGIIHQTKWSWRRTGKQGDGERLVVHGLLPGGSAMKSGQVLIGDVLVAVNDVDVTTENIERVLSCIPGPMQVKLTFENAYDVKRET
Experimental: as §1, §2, §3, §4, §5

ZO-1 d2 = target: T5, ZO-1 d2 (Homo sapiens, UniProt Q07157, DEL264-264)
T5 construct: made in house; host or cells: E. coli (DH5alpha, BL21 or JM109)
T5 sequence (Q07157 with tags, fused parts or gaps DEL264-264): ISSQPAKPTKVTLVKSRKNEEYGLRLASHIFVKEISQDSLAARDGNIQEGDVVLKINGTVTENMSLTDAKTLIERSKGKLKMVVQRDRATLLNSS
Procedure, shortened: (§6)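 ELISA with anti-GST-captured GST-PDZ fusions (5 μg/ml), probed by biotinylated Tat-TRPM7 C-terminal peptide precomplexed 20 min with HRP-streptavidin. Binding ran 30 min at room temperature; TMB read at 450 nm. Peptide was titrated from 0.002 to 2 μM and data fitted to a binding equation.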

INADL d3 = target: T6, INADL d3 (Homo sapiens, UniProt Q8NI35)
T6 construct: made in house; host or cells: E. coli (DH5alpha, BL21 or JM109)
T6 sequence (Q8NI35 with tags, fused parts or gaps): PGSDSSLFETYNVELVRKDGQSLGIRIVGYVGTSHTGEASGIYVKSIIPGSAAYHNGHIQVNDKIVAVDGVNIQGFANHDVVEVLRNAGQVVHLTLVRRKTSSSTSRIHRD
Procedure, shortened: as §6

PAR3 d3 = target: T7, PAR3 d3 (Homo sapiens, UniProt Q8TEW0, R682S)
T7 construct: made in house; host or cells: E. coli (DH5alpha, BL21 or JM109)
T7 sequence (Q8TEW0 with tags, fused parts or gaps R682S): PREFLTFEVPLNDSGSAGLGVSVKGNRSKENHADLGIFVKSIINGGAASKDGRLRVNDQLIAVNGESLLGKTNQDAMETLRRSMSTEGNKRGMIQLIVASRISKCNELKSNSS

CSCC[C@H](NC(=O)[C@H](CC(C)C)NC(=O)[C@H](CCCNC(=N)N)NC(=O)[C@@H](NC(=O)[C@H](CO)NC(=O)[C@H](CC(N)=O)NC(=O)[C@@H](NC(=O)[C@H](CO)NC(=O)[C@H](CCCNC(=N)N)NC(=O)[C@H](CCCNC(=N)N)NC(=O)[C@H](CCCNC(=N)N)NC(=O)[C@H](CCC(N)=O)NC(=O)[C@H](CCCNC(=N)N)NC(=O)[C@H](CCCNC(=N)N)NC(=O)[C@H](CCCCN)NC(=O)[C@H](CCCCN)NC(=O)[C@H](CCCNC(=N)N)NC(=O)CNC(=O)[C@H](Cc1ccc(O)cc1)NC(=O)CCCC[C@@H]1SC[C@@H]2NC(=O)N[C@@H]21)[C@@H](C)O)C(C)C)C(=O)N[C@@H](CC(C)C)C(=O)O [Tat-TRPM7 peptide] (Biotin-YGRKKRRQRRRSTNSVRLML-OH)
EC50 (Mint1 d2): < 2000 nM | EC50 (TIP1 d1): < 1000 nM | EC50 (MUPP1 d3): 290 nM | EC50 (KIAA1284 d1): > 2000 nM | EC50 (ZO-1 d2): 33 nM | EC50 (INADL d3): 120 nM | EC50 (PAR3 d3): 18 nM
